Source: US9816993B2, “Magnetically induced microspinning for super-detection and super-characterization of biomarkers and live cells” (THE REGENTS OF THE UNIVERSITY OF MICHIGAN, priority 2011, dated 2017)

Test system: HeLa cell
Test: Cell magnetorotation of a single HeLa cell: rotation period and morphology under toxic agents
Assay type: cell-based
From the text: The Y axis is the normalized period, and the X axis is time in seconds. Lines show trend between connected points. For each graph, in the pictures above it, the bottom pictures show snapshots of the rotated cell at each indicated time, while the schematic pictures on top of it show the corresponding cell shapes (fixated cell not shown). Dark discs represent the cell cytoplasm and membrane, while grey spots show the vesicles formed at the surface, if any.
In this example, cancer cells loaded with nanoparticles were magnetically separated and resuspended in different media, such as culture medium (DMEM), DMEM with 5% Ethanol, or DMEM with 75% deionized water. Each medium was used to verify different aspects of this method: DMEM was used as a control, ethanol was used as a cytotoxic agent, and, to promote stress through cell swelling, we used a large proportion of DI water, reversing the ionic balance between the inside and outside of the cell. Note that a large concentration of salt in solution has the opposite effect on the cell, namely shrinking it. The cells in suspension were then pipetted onto a LIVE CELL ARRAY plate (NUNC), where the array has 100 μm wide wells, which provide adequate compartments for single cells to rotate and be analyzed. Optical scattering signals were recorded and the changes in the rotation period were measured for the different media (FIG. 2).
Cell swelling generally occurs because of the osmotic pressure created either by an ionic imbalance, as mentioned earlier, or by a lack of nutrients. Either way, the cell expands to cope with the imbalance of the chemicals it needs for maintaining its metabolism. To reach ionic disparity, we used DI water (FIG. 2B).

Compound | rise of cell rotation period (Cisplatin 100 ug/ml (red line on FIG. 2D)) [%] | time for blebs to appear at the surface of the cell (Cisplatin at 100 ug/ml) | cell death (single HeLa cell in DMEM with 100 ug/ml Cisplatin) | time for blebs to appear at the surface of the cell (5% ethanol in DMEM) | rise of cell rotation period (5% ethanol in DMEM (FIG. 2C)) [%] | cell death (single HeLa cell in DMEM with 5% ethanol)
N.N.[Cl][Pt][Cl] [Cisplatin] | 550 | several hours | cell death is provoked |  |  | 
CCO [ethanol] |  |  |  | around 30 minutes | 550 | cell death is provoked
